Assay results reported in patent publication US20240109917A1 (ACTELION PHARMACEUTICALS LTD, priority 2020, published 2024).

Columns and labels:
[1] = biological target: His6-TEV-PDGFRβ (557-1016) (Homo sapiens (Human), UniProt P09619); experiment: PDGFRβ HTRF Assay; assay type: biochemical; details: read-out: PDGFR HTRF IC50
Method in brief: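 Human PDGFRβ (557-1016) pre-incubated with compound for 30 min at RT in pH 7.5 HEPES/MgCl2/EGTA/Brij-35/DTT buffer. Reaction started with ATP and TK-biotin peptide, run 3 h at RT, then quenched with EDTA-containing Eu-cryptate antibody/streptavidin-XL665. HTRF 665/620 nm ratio read after 60 min; percent inhibition relative to DMSO and 10 μM imatinib controls.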

[2] = biological target: Tb-labeled inactive PDGFRβ (Homo sapiens (Human), UniProt P09619); experiment: PDGFRβ LanthaScreen Assay; assay type: binding; details: read-out: PDGFR Lantha IC50
[3] = biological target: VEGFR2, unphosphorylated (Homo sapiens (Human), UniProt P35968); experiment: VEGFR ADP GLO Assay; assay type: biochemical
VEGFR2, unphosphorylated, sequence (P35968 20-1356): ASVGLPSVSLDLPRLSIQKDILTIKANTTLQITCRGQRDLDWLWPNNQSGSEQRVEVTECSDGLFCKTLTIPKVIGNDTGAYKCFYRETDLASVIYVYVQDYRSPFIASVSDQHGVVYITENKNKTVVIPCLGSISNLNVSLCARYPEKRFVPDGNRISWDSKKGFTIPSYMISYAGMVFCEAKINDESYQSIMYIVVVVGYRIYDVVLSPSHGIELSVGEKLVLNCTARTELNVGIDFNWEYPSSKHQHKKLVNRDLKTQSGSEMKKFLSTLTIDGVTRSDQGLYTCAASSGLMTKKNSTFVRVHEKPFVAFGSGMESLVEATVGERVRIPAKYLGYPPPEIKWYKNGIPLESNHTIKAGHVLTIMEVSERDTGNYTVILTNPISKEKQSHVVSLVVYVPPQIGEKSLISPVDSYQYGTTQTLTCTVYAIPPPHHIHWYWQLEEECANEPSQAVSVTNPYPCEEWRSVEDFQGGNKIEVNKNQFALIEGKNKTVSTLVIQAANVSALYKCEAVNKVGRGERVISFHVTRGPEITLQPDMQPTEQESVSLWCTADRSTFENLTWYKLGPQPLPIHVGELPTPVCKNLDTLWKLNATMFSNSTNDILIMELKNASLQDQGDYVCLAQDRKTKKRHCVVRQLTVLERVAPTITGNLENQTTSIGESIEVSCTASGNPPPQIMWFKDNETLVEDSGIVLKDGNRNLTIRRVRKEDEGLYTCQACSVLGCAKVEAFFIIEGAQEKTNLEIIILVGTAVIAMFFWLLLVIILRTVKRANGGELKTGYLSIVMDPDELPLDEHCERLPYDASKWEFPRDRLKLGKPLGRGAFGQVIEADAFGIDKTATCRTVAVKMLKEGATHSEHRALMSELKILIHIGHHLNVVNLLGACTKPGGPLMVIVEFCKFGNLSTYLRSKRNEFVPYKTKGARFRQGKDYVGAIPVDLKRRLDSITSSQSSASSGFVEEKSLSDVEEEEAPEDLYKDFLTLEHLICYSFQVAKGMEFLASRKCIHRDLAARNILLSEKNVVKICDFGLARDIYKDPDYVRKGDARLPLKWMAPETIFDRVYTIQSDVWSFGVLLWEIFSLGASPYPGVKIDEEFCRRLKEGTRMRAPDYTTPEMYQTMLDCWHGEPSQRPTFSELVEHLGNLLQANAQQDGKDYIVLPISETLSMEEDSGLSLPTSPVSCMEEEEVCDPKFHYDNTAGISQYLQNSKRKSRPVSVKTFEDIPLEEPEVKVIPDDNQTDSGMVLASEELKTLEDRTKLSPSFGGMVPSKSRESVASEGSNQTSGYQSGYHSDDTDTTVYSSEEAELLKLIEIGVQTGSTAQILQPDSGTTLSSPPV

His6-TEV-PDGFRβ (557-1016), sequence (P09619 557-1016): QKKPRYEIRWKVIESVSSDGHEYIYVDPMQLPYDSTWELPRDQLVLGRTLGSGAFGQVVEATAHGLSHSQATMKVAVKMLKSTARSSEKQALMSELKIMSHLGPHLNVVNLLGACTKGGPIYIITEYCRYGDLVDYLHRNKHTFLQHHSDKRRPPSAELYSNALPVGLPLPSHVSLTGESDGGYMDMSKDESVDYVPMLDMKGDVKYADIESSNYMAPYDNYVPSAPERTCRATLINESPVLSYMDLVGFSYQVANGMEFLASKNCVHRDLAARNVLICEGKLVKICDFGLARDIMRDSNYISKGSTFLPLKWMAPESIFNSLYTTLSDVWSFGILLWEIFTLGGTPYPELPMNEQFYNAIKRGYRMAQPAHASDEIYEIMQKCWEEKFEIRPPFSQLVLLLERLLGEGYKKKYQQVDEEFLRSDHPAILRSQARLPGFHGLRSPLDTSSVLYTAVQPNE
Tb-labeled inactive PDGFRβ, sequence (P09619 33-1106): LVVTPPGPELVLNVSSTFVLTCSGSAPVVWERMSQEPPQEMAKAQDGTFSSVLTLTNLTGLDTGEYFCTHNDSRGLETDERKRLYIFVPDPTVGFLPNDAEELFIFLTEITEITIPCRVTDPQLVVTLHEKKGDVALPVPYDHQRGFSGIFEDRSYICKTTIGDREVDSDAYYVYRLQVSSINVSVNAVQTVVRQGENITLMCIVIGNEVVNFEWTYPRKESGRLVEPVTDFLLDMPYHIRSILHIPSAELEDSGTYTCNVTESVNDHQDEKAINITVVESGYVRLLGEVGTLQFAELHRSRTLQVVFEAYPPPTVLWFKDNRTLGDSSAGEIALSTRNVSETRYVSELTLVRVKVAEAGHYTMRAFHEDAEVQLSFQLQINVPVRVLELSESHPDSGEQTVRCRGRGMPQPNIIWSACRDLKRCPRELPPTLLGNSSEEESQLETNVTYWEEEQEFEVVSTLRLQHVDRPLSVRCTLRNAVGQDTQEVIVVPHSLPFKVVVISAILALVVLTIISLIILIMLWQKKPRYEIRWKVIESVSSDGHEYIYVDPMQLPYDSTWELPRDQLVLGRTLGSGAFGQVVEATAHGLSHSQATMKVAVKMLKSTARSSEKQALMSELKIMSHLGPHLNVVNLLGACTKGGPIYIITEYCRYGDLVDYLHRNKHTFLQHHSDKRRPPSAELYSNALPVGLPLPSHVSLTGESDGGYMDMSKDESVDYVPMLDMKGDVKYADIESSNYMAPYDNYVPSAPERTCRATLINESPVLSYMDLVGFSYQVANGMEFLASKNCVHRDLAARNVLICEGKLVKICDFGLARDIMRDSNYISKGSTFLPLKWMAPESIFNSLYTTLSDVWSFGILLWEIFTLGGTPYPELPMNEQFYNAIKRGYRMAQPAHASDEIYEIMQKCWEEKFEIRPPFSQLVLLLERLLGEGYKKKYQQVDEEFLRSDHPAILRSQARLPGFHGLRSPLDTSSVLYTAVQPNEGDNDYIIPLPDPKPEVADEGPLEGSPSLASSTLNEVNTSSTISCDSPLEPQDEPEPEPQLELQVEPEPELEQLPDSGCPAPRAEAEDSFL

SMILES | IC50 [1] [nM] | IC50 [2] [nM] | IC50 [3] [nM]
Cc1ncc(NC(=O)[C@@H]2C[C@@H](C)CN2C)cc1NC(=O)c1cnn2cc(-c3cnn(C)c3)sc12 [Example 304, N-(5-((2S,4R)-1,4-dimethylpyrrolidine-2-carboxamido)-2-methylpyridin-3-yl)-2-(1-methyl-1H-pyrazol-4-yl)pyrazolo[5,1-b]thiazole-7-carboxamide] | 0.6 | 5.6 | > 7500
Cc1ncc(NC(=O)CN2CC(C)(C)C2)cc1NC(=O)c1cnn2cc(-c3cnc4[nH]ncc4c3)sc12 [Example 288, N-(5-(2-(3,3-dimethylazetidin-1-yl)acetamido)-2-methylpyridin-3-yl)-2-(1H-pyrazolo[3,4-b]pyridin-5-yl)pyrazolo[5,1-b]thiazole-7-carboxamide] | 0.4 | 11.5 | > 2500
Cc1ncc(NC(=O)C2CCCCN2C(C)C)cc1NC(=O)c1cnn2cc(-c3cccnc3O)sc12 (stereo not drawn) [Example 314, 2-(2-hydroxypyridin-3-yl)-N-(5-(1-isopropylpiperidine-2-carboxamido)-2-methylpyridin-3-yl)pyrazolo[5,1-b]thiazole-7-carboxamide] | 2.5 | 64.4 | > 7500
COc1ncccc1-c1cn2ncc(C(=O)Nc3cc(NC(=O)CN4CCCC5(CC5)C4)cnc3C)c2s1 [Example 321, N-(5-(2-(5-azaspiro[2.5]octan-5-yl)acetamido)-2-methylpyridin-3-yl)-2-(2-methoxypyridin-3-yl)pyrazolo[5,1-b]thiazole-7-carboxamide] | 0.2 | 1 | > 7500
Cc1ncc(NC(=O)CN2CC(C)(C)C2)cc1NC(=O)c1cnn2cc(-c3cnn(-c4cccnc4)c3)sc12 [Example 289, N-(5-(2-(3,3-dimethylazetidin-1-yl)acetamido)-2-methylpyridin-3-yl)-2-(1-(pyridin-3-yl)-1H-pyrazol-4-yl)pyrazolo[5,1-b]thiazole-7-carboxamide] | 0.3 | 7.1 | > 7500
Cc1ncc(NC(=O)CN2CC(C)(C)C2)cc1NC(=O)c1cnn2cc(-c3ccn(S(C)(=O)=O)c3)sc12 [Example 275, N-(5-(2-(3,3-dimethylazetidin-1-yl)acetamido)-2-methylpyridin-3-yl)-2-(1-(methylsulfonyl)-1H-pyrrol-3-yl)pyrazolo[5,1-b]thiazole-7-carboxamide] | 0.2 | 2.5 | > 7500
Cc1ncc(NC(=O)CN2CC(C)(C)C2)cc1NC(=O)c1cnn2cc(-c3ccsc3)sc12 [Example 282, N-(5-(2-(3,3-dimethylazetidin-1-yl)acetamido)-2-methylpyridin-3-yl)-2-(thiophen-3-yl)pyrazolo[5,1-b]thiazole-7-carboxamide] | 0.1 | 1.2 | 2680
Cc1ncc(NC(=O)CN2CCCC2)cc1NC(=O)c1cnn2cc(-c3cccnc3O)sc12 [Example 312, 2-(2-hydroxypyridin-3-yl)-N-(2-methyl-5-(2-(pyrrolidin-1-yl)acetamido)pyridin-3-yl)pyrazolo[5,1-b]thiazole-7-carboxamide] | 1.8 | 39.2 | > 7500
Cc1ncc(NC(=O)CN2CC(C)(C)C2)cc1NC(=O)c1cnn2cc(-c3ccc(CO)s3)sc12 [Example 278, N-(5-(2-(3,3-dimethylazetidin-1-yl)acetamido)-2-methylpyridin-3-yl)-2-(5-(hydroxymethyl)thiophen-2-yl)pyrazolo[5,1-b]thiazole-7-carboxamide] | 0.2 | 1.4 | > 7500
Cc1ncc(NC(=O)CC(C)N2CCCCC2)cc1NC(=O)c1cnn2cc(-c3cnn(C)c3)sc12 (stereo not drawn) [Example 307, 2-(1-methyl-1H-pyrazol-4-yl)-N-(2-methyl-5-(3-(piperidin-1-yl)butanamido)pyridin-3-yl)pyrazolo[5,1-b]thiazole-7-carboxamide] | 9.7 | 210 | > 7500
